# US6464958B1, “Process for the preparation of suspensions of drug particles for inhalation delivery” (Chiesi Farmaceutici S.p.A., priority 1998, dated 2002)
# Like-named read-outs stand apart in the source and are kept apart here.
# Key:
# [1] = cited from earlier work; for degradation degree: micronised steroids, radiation doses 4.5 and 15 Mrad; for stability after gamma-irradiation: 60Co, 1 to 4 Mrad
# [2] = HPLC purity and related substances of micronised BDP after gamma-irradiation; format: physicochemical
# Experimental: (§1) About 600 g of micronised BDP was stored in a 20 1 polythene container after having replaced air by nitrogen, the container was in turn sealed in two Polikem bag. The product was subjected to gamma-irradiation at 2 to 9 KGy. After the exposure, the BDP purity and the amount of related substances were determined by HPLC. On the batch subjected to 2 kGy dose, the particle size as well as the loss of weight were also determined by Malvern analysis and TGA respectively, in comparison to the non-irradiated product.
# [3] = Particle size of micronised BDP powder by Malvern analysis; format: physicochemical
# Experimental: as §1
# [4] = Loss of weight by TGA of micronised BDP after gamma-irradiation; format: physicochemical
# Experimental: as §1
compound,measurement,setting,value
C[C@]12CCC(=O)C=C1CC[C@@H]1[C@@H]2[C@@H](O)C[C@@]2(C)[C@H]1CC[C@]2(O)C(=O)CO [hydrocortisone],degradation degree,[1],about 2.4%
"CCC(=O)OCC(=O)[C@@]1(OC(=O)CC)[C@@H](C)C[C@H]2[C@@H]3CCC4=CC(=O)C=C[C@]4(C)[C@@]3(Cl)[C@@H](O)C[C@@]21C [BDP, beclomethasone dipropionate]",stability after exposure to gamma-irradiation,[2]; 2 to 9 KGy,stable
same,stability after gamma-irradiation,[1]; powder,stable immediately after irradiation
same,stability after gamma-irradiation,[1]; solution in methanol or propylene glycol,quick degradation
"CCC(=O)OCC(=O)[C@@]1(OC(=O)CC)[C@@H](C)C[C@H]2[C@@H]3CCC4=CC(=O)C=C[C@]4(C)[C@@]3(Cl)[C@@H](O)C[C@@]21C [Irr. BDP, beclomethasone dipropionate]","Particle size distribution (μm, Malvern) d (0.1)",[3]; gamma-irradiation 2 KGy,0.48 μm
same,"Particle size distribution (μm, Malvern) d (0.5)",[3]; gamma-irradiation 2 KGy,1.81 μm
same,"Particle size distribution (μm, Malvern) d (0.9)",[3]; gamma-irradiation 2 KGy,5.73 μm
same,Purity (%),[2]; gamma-irradiation 2 KGy,99.6%
same,Related substances (%),[2]; gamma-irradiation 2 KGy,0.4%
same,Purity (%),[2]; gamma-irradiation 3.17 KGy,99.6%
same,Related substances (%),[2]; gamma-irradiation 3.17 KGy,0.4%
same,Purity (%),[2]; gamma-irradiation 9.08 KGy,99.3%
same,Related substances (%),[2]; gamma-irradiation 9.08 KGy,0.7%
same,"Loss of weight (%, TGA)",[4]; gamma-irradiation 2 KGy,0.13%
C[C@]12C=CC(=O)C=C1CC[C@@H]1[C@@H]2[C@@H](O)C[C@@]2(C)[C@H]1CC[C@]2(O)C(=O)CO [prednisolone],degradation degree,[1],about 2.4%
C[C@]12CCC(=O)C=C1CC[C@@H]1[C@@H]2[C@@H](O)C[C@@]2(C)[C@H]1CC[C@]2(O)C(=O)COC(=O)CCC(=O)O [hydrocortisone sodium succinate],percentage of degradation,[1]; powder corticosteroids sterilised with 60Co,1.4 %/Mrad
"CCC(=O)OCC(=O)[C@@]1(OC(=O)CC)[C@@H](C)C[C@H]2[C@@H]3CCC4=CC(=O)C=C[C@]4(C)[C@@]3(Cl)[C@@H](O)C[C@@]21C [Non-irr. BDP, beclomethasone dipropionate]","Particle size distribution (μm, Malvern) d (0.1)",[3]; non-irradiated powder,0.49 μm
same,"Particle size distribution (μm, Malvern) d (0.5)",[3]; non-irradiated powder,1.91 μm
same,"Particle size distribution (μm, Malvern) d (0.9)",[3]; non-irradiated powder,5.98 μm
same,Purity (%),[2]; non-irradiated,99.7%
same,Related substances (%),[2]; non-irradiated,0.3%
same,"Loss of weight (%, TGA)",[4]; non-irradiated micronised powder,0.12%
